Experimental data taken from EP0013144A1, “Substituted diphenylamine derivatives, compositions and herbicidal uses thereof, and processes for their preparation” (ICI AUSTRALIA LIMITED, priority 1978, dated 1980).

Key:
Assay type in all cases: in vivo
Rape [1] = assay: Post-emergence herbicidal test, young pot plants (Example 33); details: 2.0 kg/ha, after 14 days
Outline: (§1)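 Formulation: test cpd in Span 80/Tween 20 emulsion in methylcyclohexanone, diluted to spray volume with water. Post-em: spray onto young pot plants, score d14. Pre-em: seeds in soil slit in fibre trays, levelled, sprayed, thin fresh soil cover, score d21. Scale 0–5 vs untreated.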

Senecio vulgaris [2] = assay: as above; details: 2.0 kg/ha, after 14 days
Outline: as §1

Polygonum aviculare [3] = assay: as above; details: 2.0 kg/ha, after 14 days
Outline: as §1

Chenopodium album = assay: Pre-emergence herbicidal test, fibre trays (Example 33); details: 2.0 kg/ha, after 21 days
Outline: as §1

Rape [4] = assay: as above; details: 2.0 kg/ha, after 21 days
Outline: as §1

Senecio vulgaris [5] = assay: as above; details: 2.0 kg/ha, after 21 days
Outline: as §1

Soy bean = assay: as above; details: 2.0 kg/ha, after 21 days
Outline: as §1

Polygonum aviculare [6] = assay: as above; details: 2.0 kg/ha, after 21 days
Outline: as §1

Ipomea purpurea = assay: as above; details: 2.0 kg/ha, after 21 days
Outline: as §1

Winter wheat = assay: as above; details: 2.0 kg/ha, after 21 days
Outline: as §1

Amaranthus retroflexus = assay: as above; details: 2.0 kg/ha, after 21 days
Outline: as §1

Japanese millet = assay: Pre-emergence herbicidal activity (Example 31); details: after three weeks
Outline: (§2)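 Seeded soil boxes (seeds at 2 cm) were sprayed with water-diluted emulsifiable concentrates or milled suspensions, then held under glass. Three weeks later, visual scoring: 0 = 0–25% damage, 3 = 75–99% kill, 3+ = complete kill; unsprayed duplicate boxes as reference.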

Mustard = assay: Pre-emergence herbicidal activity (Example 31); details: after three weeks
Outline: as §2

Sunflower = assay: Pre-emergence herbicidal activity (Example 31); details: after three weeks
Outline: as §2

Ipomea = assay: Pre-emergence herbicidal activity (Example 31); details: after three weeks
Outline: as §2

Wild Oats = assay: Pre-emergence herbicidal activity (Example 31); details: after three weeks
Outline: as §2

Wheat = assay: Pre-emergence herbicidal activity (Example 31); design: key: 0-3 scale: 0 = 0-25% damage, 3 = 75-99% kill, 3+ = 100% kill; details: after three weeks
Outline: as §2

## COC(=O)C(C)Oc1ccc(Nc2ccc(Br)cc2[N+](=O)[O-])cc1 (centres unmarked) [Compound 29]
Rape [1]
  damage to test plants, Rp: 1
Senecio vulgaris [2]
  damage to test plants, Sn: 4
Polygonum aviculare [3]
  damage to test plants, Pi: 0 (0 is 0 to 20% damage)
Chenopodium album
  herbicidal damage, Ca: 0 (0 is 0 to 20% damage)
Rape [4]
  herbicidal damage, Rp: 0 (0 is 0 to 20% damage)
Senecio vulgaris [5]
  herbicidal damage, Sn: 3
Soy bean
  herbicidal damage, Sy: 0 (0 is 0 to 20% damage)
Polygonum aviculare [6]
  herbicidal damage, Pi: 0 (0 is 0 to 20% damage)
Ipomea purpurea
  herbicidal damage, Ip: 0 (0 is 0 to 20% damage)
Winter wheat
  herbicidal damage, Ww: 3
Amaranthus retroflexus
  herbicidal damage, Am: 0 (0 is 0 to 20% damage)
Japanese millet; 1 kg/ha
  damage to plants, Jm: 2
Japanese millet; 5 kg/ha
  damage to plants, Jm: 3 (3 represents 75 to 99% kill)
Mustard; 1 kg/ha
  damage to plants, Ms: 0 (0 represents from 0 to 25% damage)
Mustard; 5 kg/ha
  damage to plants, Ms: 0 (0 represents from 0 to 25% damage)
Sunflower; 1 kg/ha
  damage to plants, Sf: 0 (0 represents from 0 to 25% damage)
Sunflower; 5 kg/ha
  damage to plants, Sf: 0 (0 represents from 0 to 25% damage)
Ipomea; 1 kg/ha
  damage to plants, Ip: 0 (0 represents from 0 to 25% damage)
Ipomea; 5 kg/ha
  damage to plants, Ip: 0 (0 represents from 0 to 25% damage)
Wild Oats; 1 kg/ha
  damage to plants, Ot: 1
Wild Oats; 5 kg/ha
  damage to plants, Ot: 3+ (3+ represents 100% kill)
Wheat; 1 kg/ha
  damage to plants, Wh: 1
Wheat; 5 kg/ha
  damage to plants, Wh: 1
